Data: patent publication US8278268B2, “Combination therapy comprising glucose reabsorption inhibitors and PPAR modulators” (Ortho-McNeil Pharmaceutical, Inc., priority 2001, dated 2012)
Values belong to the compound of their own block, whether it stands above or below them.

Tests used:
female db/db mice [1] = experiment: Example 1: 11 day oral dosing of rosiglitazone +/− T-1095 in db/db mice; format: in vivo
Procedure: (§1) Mice (n=8 animals/group) received the test compounds or vehicle by oral gavage in a volume of 10 ml/kg of body weight. Body weight was recorded on day 1, prior to dosing, and days 4, 8 and 11. Eighteen hours after the final dose, mice were weighed and anesthetized with CO2/O2 (70:30). Mice were then bled by retro-orbital sinus puncture into 2 mL heparinized polypropylene tubes on ice.
Plasma samples were then assayed for glucose, insulin, and triglycerides using Trinder reagent (Sigma Diagnostics), Elisa (Alpco) and GPO-Trinder (Sigma Diagnostics), respectively.
(§2) Livers were excised, weighed and frozen. […] Heart weight can be measured in an analogous manner.

female db/db mice [2] = experiment: Example 2: 11 day oral dosing of T-1095 +/− rosiglitazone in db/db mice; format: in vivo
Procedure: as §1, with “ice. Plasma samples were then assayed for glucose, insulin, and triglycerides using Trinder reagent (Sigma Diagnostics), Elisa (Alpco) and GPO-Trinder (Sigma Diagnostics), respectively. Livers and hearts were excised, weighed and frozen.” for “ice.”
as §2

db/db mice [3] = experiment: Example 4: 32 day oral dosing of T-1095 +/− MCC-555 in db/db mice; format: in vivo; conditions: for % HbA1C +/− SEM / Body Weight Change (g) ± SEM / Glucose / Heart Weight (g) ± SEM / Insulin / Liver Weight (g) ± SEM / TG: 32 day oral dosing
Procedure: (§3) To examine the effect of T-1095 in combination with a PPARγ agonist, male db/db mice (6 weeks of age/Jackson Labs, […]), a PPARγ agonist such as MCC-555 (3 mg/kg-30 mg/kg), T-1095 (3-100 mg/kg), or MCC-555 plus T-1095. Mice (n=8 animals/group) received the test compounds or vehicle by oral gavage in a volume of 10 ml/kg of body weight. Body weight was recorded on day 1, prior to dosing, and twice a week for the duration of the study. One hour after the final dose, mice were weighed and anesthetized with CO2/O2 (70:30). Mice were then bled by retro-orbital sinus puncture into 2 mL heparinized polypropylene tubes on ice. Mice were then fasted overnight and bled by tail-clip prior to receiving a glucose challenge (2 g/kg p.o). Blood was collected at 30, 60.120, and 180 minutes after the challenge. Animals were then sacrificed and epididymal fat pads, livers, and hearts were excised, weighed and frozen for histological examination. Plasma samples were then assayed for glucose, HbA1c, insulin, and triglycerides.
Livers and hearts were excised, weighed and frozen.

db/db mice [4] = experiment: Example 4: plasma glucose AUC following an oral glucose challenge; format: in vivo
Procedure: as §3

[5] = test system: diabetic rodent models (STZ-induced diabetic rat, yellow KK mice, db/db mice, Zucker Diabetic Fatty rats and GK rats); conditions: cited from earlier work

- Liver Weight (female db/db mice [1]; Rosi 0.1 mpk, −T1095, mean): 2.31 g
- Liver Weight (female db/db mice [1]; Rosi 1 mpk, −T1095, mean): 2.32 g
- Liver Weight (female db/db mice [1]; Rosi 10 mpk, −T1095, mean): 2.36 g
- Liver Weight (female db/db mice [2]; Rosi 10 mpk, mean): 2.15 g
Structure (SMILES): CN(CCOc1ccc(CC2SC(=O)NC2=O)cc1)c1ccccn1 (centres unmarked) [Rosi, 5-((4-(2-(methyl-2-pyridinylamino)ethoxy)phenyl)methyl)-2,4-thiazolidinedione]
- Glucose (female db/db mice [1]; 0.1 mpk Rosi, mean): ***388.13 mg/dL
- Insulin (female db/db mice [1]; 0.1 mpk Rosi, mean): 65.75 ng/mL
- TG (female db/db mice [1]; 0.1 mpk Rosi, mean): ***188.38 mg/dL
- Glucose (female db/db mice [1]; 1 mpk Rosi, mean): ***246.71 mg/dL
- Insulin (female db/db mice [1]; 1 mpk Rosi, mean): ***25.43 ng/ml
- TG (female db/db mice [1]; 1 mpk Rosi, mean): ***199.43 mg/dL
- Glucose (female db/db mice [1]; 10 mpk Rosi, mean): ***321.63 mg/dL
- Insulin (female db/db mice [1]; 10 mpk Rosi, mean): ***31.63 ng/ml
- TG (female db/db mice [1]; 10 mpk Rosi, mean): ***136.25 mg/dL
- Body Weight Change (female db/db mice [1]; Rosi 0.1 mpk, −T1095, mean): 4.34 g
- Body Weight Change (female db/db mice [1]; Rosi 1 mpk, −T1095, mean): 2.60 g
- Body Weight Change (female db/db mice [1]; Rosi 10 mpk, −T1095, mean): 4.76 g
- Body Weight Change (female db/db mice [2]; Rosi 10 mpk, mean): 3.9 g
- Glucose (female db/db mice [2]; Rosi 10 mpk, mean): **244 mg/dL
- Insulin (female db/db mice [2]; Rosi 10 mpk, mean): *7.4 ng/ml
- TG (female db/db mice [2]; Rosi 10 mpk, mean): *192 mg/dL

- Liver Weight (female db/db mice [1]; T1095 100 mpk, mean): 1.88 g
- Liver Weight (female db/db mice [2]; T-1095 3 mpk, −Rosi, mean): 1.63 g
- Liver Weight (female db/db mice [2]; T-1095 10 mpk, −Rosi, mean): 1.87 g
- Liver Weight (female db/db mice [2]; T-1095 30 mpk, −Rosi, mean): 1.75 g
- Liver Weight (female db/db mice [2]; T-1095 100 mpk, −Rosi, mean): 1.73 g
- Heart Weight (g) ± SEM (db/db mice [3]; 3 mpk T-1095): 0.16 ± 0.02 g
- Liver Weight (g) ± SEM (db/db mice [3]; 3 mpk T-1095): 1.51 ± 0.1 g
- Heart Weight (g) ± SEM (db/db mice [3]; 10 mpk T-1095): 0.13 ± 0.01 g
- Liver Weight (g) ± SEM (db/db mice [3]; 10 mpk T-1095): 1.58 ± 0.08 g
- Heart Weight (g) ± SEM (db/db mice [3]; 30 mpk T-1095): 0.14 ± 0.01 g
- Liver Weight (g) ± SEM (db/db mice [3]; 30 mpk T-1095): 1.57 ± 0.09 g
- Heart Weight (g) ± SEM (db/db mice [3]; 100 mpk T-1095): 0.14 ± 0.01 g
- Liver Weight (g) ± SEM (db/db mice [3]; 100 mpk T-1095): 1.64 ± 0.11 g
Structure (SMILES): COC(=O)OCC1OC(Oc2cc(C)cc(O)c2C(=O)CCc2ccc3occc3c2)C(O)C(O)C1O (centres unmarked) [T-1095]
- Body Weight Change (female db/db mice [1]; T1095 100 mpk, mean): 3.96 g
- Glucose (female db/db mice [1]; T-1095 100 mpk, mean): ***405.13 mg/dL
- Insulin (female db/db mice [1]; T-1095 100 mpk, mean): 93.88 ng/mL
- TG (female db/db mice [1]; T-1095 100 mpk, mean): 248.88 mg/dL
- Glucose (female db/db mice [2]; 3 mpk T-1095, mean): 286 mg/dL
- Insulin (female db/db mice [2]; 3 mpk T-1095, mean): **22.5 ng/ml
- TG (female db/db mice [2]; 3 mpk T-1095, mean): 263 mg/dL
- Glucose (female db/db mice [2]; 10 mpk T-1095, mean): **263 mg/dL
- Insulin (female db/db mice [2]; 10 mpk T-1095, mean): 30.1 ng/mL
- TG (female db/db mice [2]; 10 mpk T-1095, mean): 256 mg/dL
- Glucose (female db/db mice [2]; 30 mpk T-1095, mean): 370 mg/dL
- Insulin (female db/db mice [2]; 30 mpk T-1095, mean): 23.9 ng/mL
- TG (female db/db mice [2]; 30 mpk T-1095, mean): 315 mg/dL
- Glucose (female db/db mice [2]; 100 mpk T-1095, mean): **242 mg/dL
- Insulin (female db/db mice [2]; 100 mpk T-1095, mean): 49.1 ng/mL
- TG (female db/db mice [2]; 100 mpk T-1095, mean): **243 mg/dL
- Body Weight Change (female db/db mice [2]; T-1095 3 mpk, −Rosi, mean): 3.0 g
- Body Weight Change (female db/db mice [2]; T-1095 10 mpk, −Rosi, mean): 4.3 g
- Body Weight Change (female db/db mice [2]; T-1095 30 mpk, −Rosi, mean): 2.4 g
- Body Weight Change (female db/db mice [2]; T-1095 100 mpk, −Rosi, mean): 2.3 g
- % HbA1C +/− SEM (db/db mice [3]; 3 mpk T-1095): 6.10 ± 0.16%
- Body Weight Change (g) ± SEM (db/db mice [3]; 3 mpk T-1095): -6.09 ± 1.9 g
- Glucose (db/db mice [3]; 3 mpk T-1095): 490.3 ± 36 mg/dL
- Insulin (db/db mice [3]; 3 mpk T-1095): 10.7 ± 2.2 ng/dL
- TG (db/db mice [3]; 3 mpk T-1095): 210.90 ± 24 mg/dL
- % HbA1C +/− SEM (db/db mice [3]; 10 mpk T-1095): 6.00 ± 0.29%
- Body Weight Change (g) ± SEM (db/db mice [3]; 10 mpk T-1095): -0.99 ± 1.9 g
- Glucose (db/db mice [3]; 10 mpk T-1095): 413.1 ± 50 mg/dL
- Insulin (db/db mice [3]; 10 mpk T-1095): 11.4 ± 3.8 ng/dL
- TG (db/db mice [3]; 10 mpk T-1095): 178.10 ± 21 mg/dL
- % HbA1C +/− SEM (db/db mice [3]; 30 mpk T-1095): 5.38 ± 0.23%
- Body Weight Change (g) ± SEM (db/db mice [3]; 30 mpk T-1095): -2.44 ± 4.3 g
- Glucose (db/db mice [3]; 30 mpk T-1095): 380.6 ± 40 mg/dL
- Insulin (db/db mice [3]; 30 mpk T-1095): 17.7 ± 5.1 ng/dL
- TG (db/db mice [3]; 30 mpk T-1095): 197.20 ± 26 mg/dL
- % HbA1C +/− SEM (db/db mice [3]; 100 mpk T-1095): 4.96 ± 0.24 %
- Body Weight Change (g) ± SEM (db/db mice [3]; 100 mpk T-1095): -4.83 ± 2.9 g
- Glucose (db/db mice [3]; 100 mpk T-1095): 367.2 ± 42 mg/dL
- Insulin (db/db mice [3]; 100 mpk T-1095): 25.5 ± 6.2 ng/dL
- TG (db/db mice [3]; 100 mpk T-1095): 151.20 ± 17 mg/dL
- AUC glucose % of Vehicle ± SEM (db/db mice [4]; 3 mpk T-1095, 32 day oral dosing): 95.75 ± 8.45 % of Vehicle
- AUC glucose % of Vehicle ± SEM (db/db mice [4]; 10 mpk T-1095, 32 day oral dosing): 76.6 ± 6.85 % of Vehicle
- AUC glucose % of Vehicle ± SEM (db/db mice [4]; 30 mpk T-1095, 32 day oral dosing): 73.69 ± 5.7 % of Vehicle
- AUC glucose % of Vehicle ± SEM (db/db mice [4]; 100 mpk T-1095, 32 day oral dosing): 49.1 ± 3.21 % of Vehicle
- pro-drug conversion ([5]; in vivo, liver): converted to its active form T-1095A in the liver
- oral glucose tolerance test and hyperinsulinemic euglycemic clamp ([5]; in vivo, po): improvement of glucose tolerance and the reduction of insulin resistance
- adverse signs during treatment ([5]; in vivo): no observed sign of adding weight, infection in the urinary tracts, electrolyte imbalance in plasma, changes in food intake, acute hypoglycemic shock nor pathological changes in the kidney
- elevated blood glucose levels ([5]; oral administration, rodent models of IDDM and NIDDM): suppress elevated blood glucose levels
- fed and fasting blood glucose levels and HbA1c ([5]; treatment for 3 weeks to 6 months, diabetic rodent models): reduced both fed and fasting blood glucose levels and HbA1c
- hyperinsulinemia, hypertriglyceridemia, microalbuminuria ([5]; yellow KK mice and other diabetic mice models): decrease in the hyperinsulinemia, hypertriglyceridemia, and the development of microalbuminuria

- Liver Weight (g) ± SEM (db/db mice [3]; 3 mpk MCC-555): 2.36 ± 0.22 g
- Heart Weight (g) ± SEM (db/db mice [3]; 10 mpk MCC-555): 0.13 ± 0.01 g
- Liver Weight (g) ± SEM (db/db mice [3]; 10 mpk MCC-555): 1.91 ± 0.17 g
- Heart Weight (g) ± SEM (db/db mice [3]; 30 mpk MCC-555): 0.12 ± 0.01 g
- Liver Weight (g) ± SEM (db/db mice [3]; 30 mpk MCC-555): 1.68 ± 0.1 g
Structure (SMILES): O=C1NC(=O)C(Cc2ccc3cc(OCc4ccccc4F)ccc3c2)S1 (centres unmarked) [MCC-555, 5-((6-((2-fluorophenyl)methoxy)-2-naphthalenyl)methyl)-2,4-thiazolidinedione, reference compound]
- % HbA1C +/− SEM (db/db mice [3]; 3 mpk MCC-555): 4.50 ± 0.17 %
- Body Weight Change (g) ± SEM (db/db mice [3]; 3 mpk MCC-555): 9.14 ± 1.5 g
- Glucose (db/db mice [3]; 3 mpk MCC-555): 201.3 ± 24 mg/dL
- Insulin (db/db mice [3]; 3 mpk MCC-555): 31.7 ± 4.7 ng/dL
- TG (db/db mice [3]; 3 mpk MCC-555): 90.20 ± 4.5 mg/dL
- % HbA1C +/− SEM (db/db mice [3]; 10 mpk MCC-555): 4.10 ± 0.15 %
- Body Weight Change (g) ± SEM (db/db mice [3]; 10 mpk MCC-555): 9.53 ± 0.9 g
- Glucose (db/db mice [3]; 10 mpk MCC-555): 155.1 ± 22 mg/dL
- Insulin (db/db mice [3]; 10 mpk MCC-555): 11.9 ± 1.4 ng/dL
- TG (db/db mice [3]; 10 mpk MCC-555): 73.90 ± 5.4 mg/dL
- % HbA1C +/− SEM (db/db mice [3]; 30 mpk MCC-555): 4.11 ± 0.14 %
- Body Weight Change (g) ± SEM (db/db mice [3]; 30 mpk MCC-555): 8.0 ± 0.7 g
- Glucose (db/db mice [3]; 30 mpk MCC-555): 111.5 ± 8.0 mg/dL
- Insulin (db/db mice [3]; 30 mpk MCC-555): 5.40 ± 0.4 ng/dL
- TG (db/db mice [3]; 30 mpk MCC-555): 55.30 ± 4.7 mg/dL
- change in heart weight (db/db mice [3]; MCC-555 alone, in this study): did not produce a significant change in heart weight
- AUC glucose % of Vehicle ± SEM (db/db mice [4]; 3 mpk MCC-555, 32 day oral dosing): 74.11 ± 7.38 % of Vehicle
- AUC glucose % of Vehicle ± SEM (db/db mice [4]; 10 mpk MCC-555, 32 day oral dosing): 71.05 ± 8.37 % of Vehicle
- AUC glucose % of Vehicle ± SEM (db/db mice [4]; 30 mpk MCC-555, 32 day oral dosing): 48.03 ± 4.37 % of Vehicle
